Each structure is given as a SMILES string.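 How tested: cells in 96-well plates exposed to compound for 48 hours at five concentrations. TGI: total growth inhibition.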

The test system of one experiment is UO-31 renal. The experiment is described as follows: NCI-60 cell line screen, 48 h.
As to `NC(=O)NCCCC(NC(=O)OCCCCn1ccc(=O)[nH]c1=O)C(=O)O` (stereo not drawn), the TGI is above 100 µM.

In turn, `CCOC(=O)C(SCCO)C(C(=O)OCC)n1cnc2c(=O)[nH]c(NC(C)=O)nc21` (stereo not drawn) gave a TGI above 100 µM.

Molecule `Cc1ccc([N+](=O)[O-])cc1NC1=NCCO1` displayed a TGI above 100 µM.

Molecule `Cc1ccc(C(=O)O)cc1S(=O)(=O)Nn1cnc2ccc(S(=O)(=O)Nc3ccccc3C(=O)O)cc2c1=O` showed a TGI above 100 µM.

As for `Cc1ccc(-c2n[nH]c(=O)n2N2C(=O)c3ccccc3C2=O)cc1`, the TGI was above 100 µM.

On to `S=C1Nc2ccccc2SC1c1ccccc1` (stereo not drawn), for which the TGI was above 100 µM.

Molecule `CC(C)(C)OC(=O)NCCCCC1NC(=O)[C@@H]2Cc3c([nH]c4ccccc34)C(C3CCCCC3)N2C1=O` (stereo partly drawn) came in with a TGI above 100 µM.

Consider `CN(C)C(=O)O/N=C1/C(c2c(O)[nH]c3ccccc23)=Nc2ccccc21`, for which the TGI is above 100 µM.

Molecule `O=[N+]([O-])c1ccc2c(c1)c(OCc1ccccc1)nn2Cc1ccccc1` came in with a TGI above 100 µM.

Molecule `COc1cc2c(c(OC)c1OC)C(=O)[C@@H]1[C@H]2N1C(N)=O` displayed a TGI above 100 µM.

Molecule `Cc1cc(Cc2cc(C)c(N)cc2N)c(N)cc1N` registered a TGI above 100 µM.

The molecule `C[C@]12CCC(O)CC1=CC[C@@H]1[C@@H]2CC[C@]2(C)C(=O)[C@H](n3ccnc3)C[C@@H]12` (stereo partly drawn) came in with a TGI above 100 µM.

`COC(=O)c1ccccc1CC1Cc2ccc3c(c2C1=O)CCCC3` (stereo not drawn): the TGI is above 100 µM.

As for `CCOC(=O)C1(C/C=C/CBr)Cc2ccccc2C1=O` (stereo not drawn), the TGI came out at 4.83 µM.

Consider `COc1ccc(COCCOCc2nc(C#N)c(N)o2)cc1`, for which the TGI is above 100 µM.

In the case of `N#Cc1c(N2CCCC2)ncn(-c2ccccc2)c1=O`, the TGI was above 100 µM.

The molecule `CC1(C)OC(=O)N(c2ccccc2)C12C=Cc1cc([N+](=O)[O-])cc([N+](=O)[O-])c1O2` (stereo not drawn) showed a TGI above 100 µM.

The test system of the next experiment is TK-10 renal. The experiment can be described thus: NCI-60 cell line screen, 48 h.
`NC(=O)NCCCC(NC(=O)OCCCCn1ccc(=O)[nH]c1=O)C(=O)O` (stereo not drawn) showed a TGI above 100 µM.

The molecule `CCOC(=O)C(SCCO)C(C(=O)OCC)n1cnc2c(=O)[nH]c(NC(C)=O)nc21` (stereo not drawn) had a TGI above 100 µM.

`Cc1ccc([N+](=O)[O-])cc1NC1=NCCO1` registered a TGI above 100 µM.

In turn, `Cc1ccc(C(=O)O)cc1S(=O)(=O)Nn1cnc2ccc(S(=O)(=O)Nc3ccccc3C(=O)O)cc2c1=O` displayed a TGI above 100 µM.

In turn, `Cc1ccc(-c2n[nH]c(=O)n2N2C(=O)c3ccccc3C2=O)cc1` came in with a TGI above 100 µM.

With `S=C1Nc2ccccc2SC1c1ccccc1` (stereo not drawn), the TGI is above 100 µM.

Take `CC(C)(C)OC(=O)NCCCCC1NC(=O)[C@@H]2Cc3c([nH]c4ccccc34)C(C3CCCCC3)N2C1=O` (stereo partly drawn): the TGI is above 100 µM.

As for `CN(C)C(=O)O/N=C1/C(c2c(O)[nH]c3ccccc23)=Nc2ccccc21`, the TGI turned out to be 57.1 µM.

Molecule `O=[N+]([O-])c1ccc2c(c1)c(OCc1ccccc1)nn2Cc1ccccc1` had a TGI above 100 µM.

`COc1cc2c(c(OC)c1OC)C(=O)[C@@H]1[C@H]2N1C(N)=O` had a TGI above 100 µM.

The molecule `Cc1cc(Cc2cc(C)c(N)cc2N)c(N)cc1N` came in with a TGI above 100 µM.

Molecule `C[C@]12CCC(O)CC1=CC[C@@H]1[C@@H]2CC[C@]2(C)C(=O)[C@H](n3ccnc3)C[C@@H]12` (stereo partly drawn) returned a TGI above 100 µM.

Molecule `COC(=O)c1ccccc1CC1Cc2ccc3c(c2C1=O)CCCC3` (stereo not drawn) came in with a TGI above 100 µM.

Regarding `CCOC(=O)C1(C/C=C/CBr)Cc2ccccc2C1=O` (stereo not drawn), the TGI amounted to 9.15 µM.

`COc1ccc(COCCOCc2nc(C#N)c(N)o2)cc1` displayed a TGI above 100 µM.

The molecule `N#Cc1c(N2CCCC2)ncn(-c2ccccc2)c1=O` gave a TGI above 100 µM.

Consider `CC1(C)OC(=O)N(c2ccccc2)C12C=Cc1cc([N+](=O)[O-])cc([N+](=O)[O-])c1O2` (stereo not drawn), for which the TGI is above 100 µM.

A further experiment concerns M14 melanoma. The experiment is described as follows: NCI-60 cell line screen, 48 h.
In turn, `NC(=O)NCCCC(NC(=O)OCCCCn1ccc(=O)[nH]c1=O)C(=O)O` (stereo not drawn) gave a TGI above 100 µM.

`CCOC(=O)C(SCCO)C(C(=O)OCC)n1cnc2c(=O)[nH]c(NC(C)=O)nc21` (stereo not drawn) had a TGI above 100 µM.

With `Cc1ccc([N+](=O)[O-])cc1NC1=NCCO1`, the TGI is above 100 µM.

The molecule `Cc1ccc(C(=O)O)cc1S(=O)(=O)Nn1cnc2ccc(S(=O)(=O)Nc3ccccc3C(=O)O)cc2c1=O` returned a TGI above 100 µM.

For `Cc1ccc(-c2n[nH]c(=O)n2N2C(=O)c3ccccc3C2=O)cc1`, the TGI was above 100 µM.

`S=C1Nc2ccccc2SC1c1ccccc1` (stereo not drawn) returned a TGI above 100 µM.

As to `CC(C)(C)OC(=O)NCCCCC1NC(=O)[C@@H]2Cc3c([nH]c4ccccc34)C(C3CCCCC3)N2C1=O` (stereo partly drawn), the TGI is above 100 µM.

For the molecule `CN(C)C(=O)O/N=C1/C(c2c(O)[nH]c3ccccc23)=Nc2ccccc21`, the TGI was above 100 µM.

In turn, `O=[N+]([O-])c1ccc2c(c1)c(OCc1ccccc1)nn2Cc1ccccc1` displayed a TGI above 100 µM.

For the molecule `COc1cc2c(c(OC)c1OC)C(=O)[C@@H]1[C@H]2N1C(N)=O`, the TGI was above 100 µM.

The molecule `Cc1cc(Cc2cc(C)c(N)cc2N)c(N)cc1N` came in with a TGI above 100 µM.

As for `C[C@]12CCC(O)CC1=CC[C@@H]1[C@@H]2CC[C@]2(C)C(=O)[C@H](n3ccnc3)C[C@@H]12` (stereo partly drawn), the TGI is above 100 µM.

As to `COC(=O)c1ccccc1CC1Cc2ccc3c(c2C1=O)CCCC3` (stereo not drawn), the TGI is above 100 µM.

The molecule `CCOC(=O)C1(C/C=C/CBr)Cc2ccccc2C1=O` (stereo not drawn) gave a TGI of 11.6 µM.

`COc1ccc(COCCOCc2nc(C#N)c(N)o2)cc1` showed a TGI above 100 µM.

`N#Cc1c(N2CCCC2)ncn(-c2ccccc2)c1=O` returned a TGI above 100 µM.

For the molecule `CC1(C)OC(=O)N(c2ccccc2)C12C=Cc1cc([N+](=O)[O-])cc([N+](=O)[O-])c1O2` (stereo not drawn), the TGI is above 100 µM.

Another experiment relates to CAKI-1 renal. The experiment can be described thus: NCI-60 cell line screen, 48 h.
The molecule `NC(=O)NCCCC(NC(=O)OCCCCn1ccc(=O)[nH]c1=O)C(=O)O` (stereo not drawn) displayed a TGI above 100 µM.

Molecule `CCOC(=O)C(SCCO)C(C(=O)OCC)n1cnc2c(=O)[nH]c(NC(C)=O)nc21` (stereo not drawn) yielded a TGI above 100 µM.

`Cc1ccc([N+](=O)[O-])cc1NC1=NCCO1` came in with a TGI above 100 µM.

`Cc1ccc(C(=O)O)cc1S(=O)(=O)Nn1cnc2ccc(S(=O)(=O)Nc3ccccc3C(=O)O)cc2c1=O` displayed a TGI above 100 µM.

For `Cc1ccc(-c2n[nH]c(=O)n2N2C(=O)c3ccccc3C2=O)cc1`, the TGI was above 100 µM.

In the case of `S=C1Nc2ccccc2SC1c1ccccc1` (stereo not drawn), the TGI was above 100 µM.

The molecule `CC(C)(C)OC(=O)NCCCCC1NC(=O)[C@@H]2Cc3c([nH]c4ccccc34)C(C3CCCCC3)N2C1=O` (stereo partly drawn) displayed a TGI above 100 µM.

As to `CN(C)C(=O)O/N=C1/C(c2c(O)[nH]c3ccccc23)=Nc2ccccc21`, the TGI was 72.6 µM.

The molecule `O=[N+]([O-])c1ccc2c(c1)c(OCc1ccccc1)nn2Cc1ccccc1` gave a TGI above 100 µM.

Consider `COc1cc2c(c(OC)c1OC)C(=O)[C@@H]1[C@H]2N1C(N)=O`, for which the TGI was above 100 µM.

Regarding `Cc1cc(Cc2cc(C)c(N)cc2N)c(N)cc1N`, the TGI is above 100 µM.

`C[C@]12CCC(O)CC1=CC[C@@H]1[C@@H]2CC[C@]2(C)C(=O)[C@H](n3ccnc3)C[C@@H]12` (stereo partly drawn) returned a TGI above 100 µM.

For `COC(=O)c1ccccc1CC1Cc2ccc3c(c2C1=O)CCCC3` (stereo not drawn), the TGI is above 100 µM.

Turning to `CCOC(=O)C1(C/C=C/CBr)Cc2ccccc2C1=O` (stereo not drawn), the TGI is 7.27 µM.

Regarding `COc1ccc(COCCOCc2nc(C#N)c(N)o2)cc1`, the TGI was above 100 µM.

In turn, `N#Cc1c(N2CCCC2)ncn(-c2ccccc2)c1=O` returned a TGI above 100 µM.

`CC1(C)OC(=O)N(c2ccccc2)C12C=Cc1cc([N+](=O)[O-])cc([N+](=O)[O-])c1O2` (stereo not drawn) had a TGI above 100 µM.

In a further experiment the test system is UACC-257 melanoma. The experiment is described as follows: NCI-60 cell line screen, 48 h.
Consider `NC(=O)NCCCC(NC(=O)OCCCCn1ccc(=O)[nH]c1=O)C(=O)O` (stereo not drawn), for which the TGI is above 100 µM.

For the molecule `CCOC(=O)C(SCCO)C(C(=O)OCC)n1cnc2c(=O)[nH]c(NC(C)=O)nc21` (stereo not drawn), the TGI was above 100 µM.

As for `Cc1ccc([N+](=O)[O-])cc1NC1=NCCO1`, the TGI was above 100 µM.

As to `Cc1ccc(C(=O)O)cc1S(=O)(=O)Nn1cnc2ccc(S(=O)(=O)Nc3ccccc3C(=O)O)cc2c1=O`, the TGI was above 100 µM.

Molecule `Cc1ccc(-c2n[nH]c(=O)n2N2C(=O)c3ccccc3C2=O)cc1` displayed a TGI above 100 µM.

`S=C1Nc2ccccc2SC1c1ccccc1` (stereo not drawn) yielded a TGI above 100 µM.

For the molecule `CC(C)(C)OC(=O)NCCCCC1NC(=O)[C@@H]2Cc3c([nH]c4ccccc34)C(C3CCCCC3)N2C1=O` (stereo partly drawn), the TGI was above 100 µM.

`CN(C)C(=O)O/N=C1/C(c2c(O)[nH]c3ccccc23)=Nc2ccccc21` showed a TGI above 100 µM.

Regarding `O=[N+]([O-])c1ccc2c(c1)c(OCc1ccccc1)nn2Cc1ccccc1`, the TGI was above 100 µM.

Take `COc1cc2c(c(OC)c1OC)C(=O)[C@@H]1[C@H]2N1C(N)=O`: the TGI is above 100 µM.

`Cc1cc(Cc2cc(C)c(N)cc2N)c(N)cc1N`: the TGI is above 100 µM.

With `C[C@]12CCC(O)CC1=CC[C@@H]1[C@@H]2CC[C@]2(C)C(=O)[C@H](n3ccnc3)C[C@@H]12` (stereo partly drawn), the TGI is above 100 µM.

`COC(=O)c1ccccc1CC1Cc2ccc3c(c2C1=O)CCCC3` (stereo not drawn) registered a TGI above 100 µM.

As for `CCOC(=O)C1(C/C=C/CBr)Cc2ccccc2C1=O` (stereo not drawn), the TGI was 22.6 µM.

Consider `COc1ccc(COCCOCc2nc(C#N)c(N)o2)cc1`, for which the TGI was above 100 µM.

On to `N#Cc1c(N2CCCC2)ncn(-c2ccccc2)c1=O`, for which the TGI was above 100 µM.

Molecule `CC1(C)OC(=O)N(c2ccccc2)C12C=Cc1cc([N+](=O)[O-])cc([N+](=O)[O-])c1O2` (stereo not drawn) showed a TGI above 100 µM.

Another experiment concerns SK-MEL-28 melanoma. The experiment can be described thus: NCI-60 cell line screen, 48 h.
In turn, `NC(=O)NCCCC(NC(=O)OCCCCn1ccc(=O)[nH]c1=O)C(=O)O` (stereo not drawn) had a TGI above 100 µM.

In turn, `CCOC(=O)C(SCCO)C(C(=O)OCC)n1cnc2c(=O)[nH]c(NC(C)=O)nc21` (stereo not drawn) registered a TGI above 100 µM.

As for `Cc1ccc([N+](=O)[O-])cc1NC1=NCCO1`, the TGI is above 100 µM.

`Cc1ccc(C(=O)O)cc1S(=O)(=O)Nn1cnc2ccc(S(=O)(=O)Nc3ccccc3C(=O)O)cc2c1=O`: the TGI is above 100 µM.

Molecule `Cc1ccc(-c2n[nH]c(=O)n2N2C(=O)c3ccccc3C2=O)cc1` had a TGI above 100 µM.

The molecule `S=C1Nc2ccccc2SC1c1ccccc1` (stereo not drawn) returned a TGI above 100 µM.

The molecule `CC(C)(C)OC(=O)NCCCCC1NC(=O)[C@@H]2Cc3c([nH]c4ccccc34)C(C3CCCCC3)N2C1=O` (stereo partly drawn) returned a TGI above 100 µM.

The molecule `CN(C)C(=O)O/N=C1/C(c2c(O)[nH]c3ccccc23)=Nc2ccccc21` displayed a TGI above 100 µM.

These data come from PubChem BioAssay (NCI).
